Results: US11357786B2, “Synthetic disugar hydrocarbons as natural analogs to control microbial behaviors” (Syracuse University, priority 2014, dated 2022)
Entries after “also recorded” stand apart in the source; their conditions may differ.

Experiments:
Format in all cases: cell-based, Pseudomonas aeruginosa
PAO1 biofilm [1] = assay: Crystal violet based static biofilm inhibition assay, DSHs in LB media (Examples 2 and 4); conditions: for Inhibition of PAO1 biofilm formation (surface attached): 160 μM, 24 h, LB media
Method: The ability of DSHs was tested to inhibit Pseudomonas aeruginosa adhesion, biofilm and to disperse pre-formed biofilm. To quantify the amount of PAO1/EGFP attached on the surface of micro titer plates with or without the synthesized DSHs, fluorescence emitted by green fluorescent proteins (GFP) was quantified (see supporting info for details). Crystal violet (CV) based static biofilm assay (see supporting info) was used to screen the anti-biofilm potencies of all synthesized agents. Both surface attached (SA) (FIG. 17) and total (SA+air-liquid interface) biofilm of P. aeruginosa was quantified. […] CV assays were also used to quantify the amount of P. aeruginosa biofilm remaining after dispersion experiments (FIG. 19). Initially, all agents were screen for anti-biofilm activities (both inhibition and dispersion) at 160 μM. […] All reported biofilm inhibition results are an average of 4 identical wells.
The effect that DSHs have on the adhesion of PAO1-EGFP on polystyrene surface (microtiter plate) was also examined. PAO1-EGFP is a P. aeruginosa strain that constitutively expresses green fluorescent protein. In the adhesion assays, PAO1-EGFP was grown in microtiter plate for 24-hours in LB-media with (160 μM) or without DSHs. After 24-hours, the fluorescent signal obtained from surface adhered PAO1-EGFP was measured. Percent reduction in fluorescence was calculated by comparing fluorescent signal from PAO1-EGFP grown in LB-media with the signal from wells that had DSHs (FIG. 29A). To study the effect of DSHs on biofilm formation, Pseudomonas aeruginosa (PAO1) was grown in LB-media with (160 μM) or without DSHs at 37° C. under static conditions within wells of microtiter plates. After 24 hours, the surface attached biofilms adhering to the bottom of the wells were stained with crystal-violet dye and the biofilm was quantified by measuring absorbance at 600 nm (OD600). […] Similar to inhibition, the surface attached biofilm after dispersion with DSHs was quantified with crystal-violet staining and absorbance measurement at 600 nm, except that for dispersion, biofilm was first grown for 1 day in just LB-media without any DSHs after which DSHs were added and plates were incubated for additional 24 hours followed by quantification (FIG. 29B).
Crystal violet (CV) based-biofilm inhibition assay. Inhibitory effect of all synthesized disaccharide hydrocarbons on biofilm formation of Pseudomonas aeruginosa (wild type PAO1) was determined by static biofilm inhibition assay using crystal violet staining. Overnight culture of PAO1 were sub cultured in LB media to OD600 of 0.01 and further the OD600 was allowed to reach ˜0.1. The bacterial sub-culture (200 μL) was then added into the wells of a microtiter plate. Predetermined concentrations of DSHs were added to respective wells containing sub culture by pipetting out fixed volume of sterile aqueous stock solutions (except DβL (7), SPOT, (15) and 2-ODαC (17), which were introduced as stocks prepared in H2O […] and EtOH (90:10) solutions). The microtiter plates were then wrapped in GLAD Press n′ Seal® (saran wrap) and further incubated under stationary conditions for 24 h at 37° C. After 24 h incubation, the culture media was discarded by pipetting carefully (without disrupting biofilm), the plate was then washed once with sterile water (200 μL) and allowed to dry at 37° C. for ˜30 mins. Microtiter plates were then stained with 0.1% aqueous solution of crystal violet (CV) (200 μL) at rt for ˜30 mins. Following this, the CV stain was removed and plate was again washed with sterile water (200 μL). Resultant CV stain in the well was then solubilized by adding 100 μL of 30% AcOH solution (in water) and mixing gently by pipetting.

1-day old PAO1 biofilm = assay: Crystal violet assay for dispersion of 1-day old biofilm, DSHs (Examples 2 and 4); conditions: 160 μM, another 24 h
Method: The effect that DSHs have on the adhesion of PAO1-EGFP on polystyrene surface (microtiter plate) was also examined. PAO1-EGFP is a P. aeruginosa strain that constitutively expresses green fluorescent protein. In the adhesion assays, PAO1-EGFP was grown in microtiter plate for 24-hours in LB-media with (160 μM) or without DSHs. After 24-hours, the fluorescent signal obtained from surface adhered PAO1-EGFP was measured. Percent reduction in fluorescence was calculated by comparing fluorescent signal from PAO1-EGFP grown in LB-media with the signal from wells that had DSHs (FIG. 29A). To study the effect of DSHs on biofilm formation, Pseudomonas aeruginosa (PAO1) was grown in LB-media with (160 μM) or without DSHs at 37° C. under static conditions within wells of microtiter plates. After 24 hours, the surface attached biofilms adhering to the bottom of the wells were stained with crystal-violet dye and the biofilm was quantified by measuring absorbance at 600 nm (OD600). The percent inhibition was calculated by comparing biofilm content of wells with no added agents (control) with the biofilm content from wells that had 160 μM of DSHs (FIG. 29A). Similar to inhibition, the surface attached biofilm after dispersion with DSHs was quantified with crystal-violet staining and absorbance measurement at 600 nm, except that for dispersion, biofilm was first grown for 1 day in just LB-media without any DSHs after which DSHs were added and plates were incubated for additional 24 hours followed by quantification (FIG. 29B).
Crystal violet based assay for quantifying dispersion of 1-day old PAO1 biofilms were Plate for set up similar to inhibition assay with a slight modification. Wells of the micro-titer plate was inoculated with (200 μL) bacterial subculture (PAO1 subculture OD600 ˜0.1). The plates were incubated at 37° C. for 24 hours to allow biofilm formation. After 24 hours, bacterial culture was gently pipetted out and appropriate volume of DSH were added followed by addition of fresh LB medium (200 μL). The microtiter plate was incubated for an additional 24 hours at 37° C., following which, similar to work up of inhibition assay, culture was removed, wells were washed and CV-dye was introduced, followed by washing and destaining with 30% AcOH solution in water and quantification at 600 nm. Here again, only the surface attached biofilm dispersed was reported by comparing wells with DSHs with wells with no agent.
Dose dependence assays for biofilm inhibition and dispersion. […] Both for biofilm inhibition and dispersion, predetermined volumes of DSH stocks were added to the assigned wells to span a concentration range between 0.5 μM-170 μM. Percent biofilm inhibition of dispersion was calculated by comparing to wells with no agent. The percent biofilm inhibition or dispersion was plotted versus concentration of DSHs. The linear values were logarithmically curve fitted using equation […]. The half maximal inhibitory concentration for both biofilm inhibition and dispersion (IC50 and DC50) were thus obtained.

[2] = system: nonswarming P. aeruginosa mutant rhlA; assay: Swarming motility of nonswarming rhlA mutant on soft agar (reactivation / agonist assay); conditions: 85 μM in soft agar (0.5%), 24 h
From the text: Using nonswarming mutant to screen for swarming agonists and wild type P. aeruginosa for swarming antagonists. The transposon mutant, rhlA (genotype, rhlA-E08:ISphoA/hah)39 of P. aeruginosa (PAO1), that impairs the gene that is responsible for synthesizing rhamnolipids is completely incapable of a swarming motility. […] Based on this inference, a rhlA mutant was used in a swarming experiment to screen the saccharide-hydrocarbons for agonists that can reactivate the swarming motility of rhlA.
(§1) Swarm agar plates were based on M8 medium supplemented with 0.2% glucose, 0.5% casamino acid, 1 mM MgSO4 and […]. 17 For each set of experiment all the swarm plates were poured from same batch of agar and allowed to dry for 1 h before inoculation of bacteria. Bacterial culture (3 μl) (wild type PAO1 or rhlA mutant) with OD600 between […] was inoculated on the solidified agar plates. Swarm agar plates were incubated at 37° C. for 12 h and then incubated for additional 12 h at room temp. Chronological images of swarm plates were taken using a camera. To measure swarming area, sizes of the petridish in all swarming images were adjusted to a pre-assigned diameter and images were printed on copying paper (Xerox-business 4200). Weight of a 1 cm^2 copy paper square was roughly ˜8.0 mg. swarming images on the copy paper were cut and weighed, the swarm area was calculated by dividing the weight of image by weight of 1 cm^2 square (8 mg).
(§2) Swarm agar plates were made using M8 medium supplemented with 0.2% glucose, 0.5% casamino acid, 1 mM MgSO4 and solidified with 0.5% Bacto agar. 24 Bacterial culture with OD600 between 0.4 to 0.6 was inoculated as 3 μl aliquots. Swarm agar plates were incubated at 37° C. for 12 h and then incubated for additional 12 h at rt. For each set of experiment all the swarm plates were poured from same batch of agar and allowed to dry for 1 h before inoculation of bacteria.

wild type PAO1 = assay: Swarming motility of wild type PAO1 on soft agar (antagonist assay)
Method: In contrast, the wild type P. aeruginosa produces the rhamnolipids and is capable of swarming on soft agar gel (˜0.5% agar). […] We note that saccharide hydrocarbons may also promote the swarming motility, but such promotions are less unambiguous than the inhibition for wild type PAO1. Such promotion will be unambiguous in the agonist assay using the nonswarming mutant rhlA.
as §1, §2

PAO1 biofilm [3] = assay: Crystal violet dye based biofilm inhibition assay, maltose derivatives (Example 1); conditions: 110 μM, 24 h, CV assay
Method: A crystal violet (CV) assay was used to measure the amount of PAO1 biofilm formed after 24 h of bacterial inoculation. The fluorescence of green fluorescent proteins (GFP) expressed by PAO1-GFP was measured to directly quantify bacterial adhesion on polystyrene black 96 well plates with and without maltose derivatives after 2 h of bacterial inoculation. To evaluate the potential of maltose derivatives as both anti-biofilm and anti-adhesion agents, they were compared to a brominated furanone (BF8) known to inhibit biofilm formation, and two generic surfactants, sodium dodecyl sulfate (SDS) and tetra (ethylene glycol) monododecyl ether (C12EG4OH). […] P. aeruginosa strain PAO1-EGFP that constitutively producing green fluorescent protein was allowed to form biofilm on sterile steel coupons.
Inhibitory effect of all the maltose hydrocarbons on P. aeruginosa biofilm formation was determined by crystal violet dye based biofilm inhibition assays. Overnight culture of wild type P. aeruginosa (PAO1) was sub cultured to an OD600 of 0.01 into the 95:5 M9+:Lb medium. 200 μL of the sub culture was aliquoted into the wells of 96 well polystyrene microtiter plate when it reached the OD600 of 0.1. Predetermined concentrations of the test compounds were then added to the respective wells containing sub culture. Sample plates were wrapped in GLAD Press n′ Seal® followed by incubation under stationary conditions for 24 h at 37° C. After incubation the media was discarded and the plates were washed with water and dried for 1 h at 37° C. The sample plates were stained with 200 μL of 0.1% aqueous solution of crystal violet (CV) and followed by incubation at ambient temperature for 20 min. The CV stain was then discarded and the plates were washed with water. The remaining biofilm adhered stain was re-solubilized with 200 μL of 30% acetic acid. After the stain was dissolved (15 minutes), 100 μL of the solubilized CV was transferred from each well into the corresponding wells of a new polystyrene microtiter dish. Biofilm inhibition was quantified by measuring the OD600 of each well in which a negative control lane wherein no biofilm was formed served as a background and was subtracted out. The percent inhibition was calculated by the comparison of the OD600 for biofilm grown in the absence of compound (control) versus biofilm grown in the presence of compound under identical conditions.
Predetermined amounts maltose derivatives stock solution was added to the 200 μL bacterial culture in 96 well plate so that the final concentration of the agent reaches the desired values of 1, 5, 10, 20, 40, 85, 113, 140 μM. Biofilm inhibition and dispersion assay was carried as described previously.

Compound	Inhibition of PAO1 biofilm formation (surface attached) (PAO1 biofilm [1])	Inhibition of PAO1 biofilm formation (surface attached) (PAO1 biofilm [1]; listed as 17: 2-ODαC, 160 µM)	Dispersion of 24-h old PAO1 biofilm (1-day old PAO1 biofilm)	Inhibition of PAO1 biofilm formation (surface attached) (PAO1 biofilm [1]; listed as 16: 2-ODβC, 160 µM)	Anti-biofilm activity (biofilm inhibition) (PAO1 biofilm [1]; concentration not given)	Swarming motility of rhlA mutant [2]	Swarming motility of wild type PAO1 (wild type PAO1; 85 μM in soft agar, 24 h)	Effect on PAO1 swarming (wild type PAO1; concentration not given)	Inhibition of PAO1 biofilm (PAO1 biofilm [3])
CCCCCCCCCCC(CCCCCCCC)CO[C@H]1O[C@H](CO)[C@@H](O[C@@H]2O[C@H](CO)[C@@H](O)[C@H](O)[C@H]2O)[C@H](O)[C@H]1O (stereo partly drawn) [2-ODαC (17), 2-octyl-dodecyl-α-cellobioside]	not active for biofilm inhibition or dispersion	ineffective at biofilm inhibition	not active for biofilm inhibition or dispersion	–	–	–	–	–	–
CCCCCCCCCCC(CCCCCCCC)CO[C@@H]1O[C@H](CO)[C@@H](O[C@@H]2O[C@H](CO)[C@@H](O)[C@H](O)[C@H]2O)[C@H](O)[C@H]1O (stereo partly drawn) [2-ODβC (16), 2-octyl-dodecyl-β-cellobioside]	–	–	not active for biofilm inhibition or dispersion	ineffective at biofilm inhibition	not effective at inhibiting the biofilm formation	no apparent effect on rhlA	inhibited the swarming motility of wild type PAO1	did exhibit inhibition of PAO1 swarming; also recorded: inhibits the swarming activities of PAO1; also recorded: PAO1 swarming inhibitors	–
CCCCCCCCCCC(CO[C@@H]1O[C@H](CO)[C@@H](O[C@H]2O[C@H](CO)[C@@H](O)[C@H](O)[C@H]2O)[C@H](O)[C@H]1O)Cc1ccc(C(C)(C)C)cc1 (stereo partly drawn) [4-tBuBDβM, 4-tertiary butyl benzyl dodecyl β-maltoside]	–	–	–	–	–	did not exhibit any significant activation of swarming	–	–	74%
benzyl decyl β-maltoside [BDeβM]	–	–	–	–	–	swarming motility with without well-defined tendrils	–	–	50%
